{"source": "paper PMC9977398", "about": "“Next-generation membrane-active glycopeptide antibiotics that also inhibit bacterial cell division” (Chemical Science, 2023)", "system": "MRSA", "experiment": "Resistance study, serial passaging at sub-MIC", "format": "cell-based, S. aureus", "settings": "after 20 passages at sub-MIC", "protocol": "Having observed the multiple mechanisms of VanQAmC10, the potential as a preclinical candidate was examined. […] The frequency of resistance for both vancomycin and VanQAmC10 against MRSA was <10^−8 indicating the absence of spontaneous mutants. […]\nfrom 10 μg/mL. The bacteria with compounds and untreated control were incubated for 18 h at 37 ̊C under shaking and OD600 was measured.\nMicroscopy of ΔamiAC MG1655 E. coli\nΔamiAC MG1655 was cultured overnight in LB media at 37 ̊C. Cells were then inoculated in LB media at 1:100 dilution ratio and made to grow till O.D600 0.1. The cells were then treated with 4 μg/mL concentration of vancomycin and VanQAmC10 or left untreated for 2 h. […]\nMRSA ATCC 33591 was grown to mid-log phase at 37 °C. […] The viable bacteria were then counted after 48 h incubation at 37 °C. […]\nAntagonization of antibacterial activity of AAV-qC10 was determined by addition of 500 μM N,N՛-diacetyl–L-Lys–D-Ala–D-Ala or 100 μg/mL of lipoteichoic acid to serial dilutions of the test compound. The MIC was then determined against MRSA by measuring the OD600 18-24 […]\nVancomycin was chosen as control antibiotic for MRSA. The initial MIC values of VanQAmC10, vancomycin were determined against the respective bacteria. […]\nThe doses for administration, were given modified OECD guidelines. LD50 was determined using Spearman-Karber method. […]"}
{"compound": "CCCCCCCCCCNC(=O)C[N+](C)(C)CCCNC(=O)C1NC(=O)C2NC(=O)C(NC(=O)C3NC(=O)C(CC(N)=O)NC(=O)C(NC(=O)C(CC(C)C)NC)C(O)c4ccc(c(Cl)c4)Oc4cc3cc(c4OC3OC(CO)C(O)C(O)C3OC3CC(C)(N)C(O)C(C)O3)Oc3ccc(cc3Cl)C2O)c2ccc(O)c(c2)-c2c(O)cc(O)cc21", "note": "(centres unmarked) [VanQAmC10 (8)]", "values": [{"measurement": "increase in MIC (resistance development)", "result": "lack of resistance development"}]}
{"compound": "CN[C@H](CC(C)C)C(=O)N[C@H]1C(=O)N[C@@H](CC(N)=O)C(=O)N[C@H]2C(=O)N[C@H]3C(=O)N[C@H](C(=O)N[C@H](C(=O)O)c4cc(O)cc(O)c4-c4cc3ccc4O)[C@H](O)c3ccc(c(Cl)c3)Oc3cc2cc(c3O[C@@H]2O[C@H](CO)[C@@H](O)[C@H](O)[C@H]2O[C@H]2C[C@](C)(N)[C@H](O)[C@H](C)O2)Oc2ccc(cc2Cl)[C@H]1O", "note": "[Vancomycin, reference compound]", "values": [{"measurement": "increase in MIC (resistance development)", "result": 2, "unit": "fold"}]}
